The record followed here is US11236129B2, “IL-17A binding peptides and medical uses thereof” (Dompe' Farmaceutici S.P.A., priority 2018, dated 2022).

The test addresses IL-17RA/IL17RC dimerization induced by IL-17A (Homo sapiens, UniProt Q16552). Nature of the test: IL-17RA/IL17RC dimerization assay in response to IL-17A (PathHunter Cytokine Receptor Assay). The format is cell-based. The settings on record: IL-17A at EC80; read-out: IC50 in IL-17RA/IL7RC dimerization assay. An outline of the steps: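 PathHunter cells with IL-17RA and IL-17RC tagged for β-galactosidase complementation were preincubated 60 min with peptide (1% vehicle). IL-17A was then added at EC80 for 6–16 h at 37 °C, and chemiluminescence was read. Inhibition is relative to the EC80 and vehicle controls.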

Residues, ends and D or L forms follow the SMILES beside them.

Chain of IL-17RA/IL17RC dimerization induced by IL-17A (Q16552 24-155): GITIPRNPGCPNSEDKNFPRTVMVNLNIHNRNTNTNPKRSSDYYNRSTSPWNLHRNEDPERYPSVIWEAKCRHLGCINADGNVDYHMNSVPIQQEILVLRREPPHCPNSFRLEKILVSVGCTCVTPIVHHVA

With `CC[C@H](C)[C@H](NC(C)=O)C(=O)N[C@@H](Cc1c[nH]cn1)C(=O)N[C@H](C(=O)N[C@@H](CC(N)=O)C(=O)N[C@H](C(=O)N1CCC[C@H]1C(=O)N[C@@H](C)C(=O)N[C@@H](CC(=O)O)C(=O)N[C@@H](CC(C)C)C(=O)N[C@@H](Cc1c[nH]c2ccccc12)C(=O)N[C@@H](CC(=O)O)C(=O)N[C@@H](Cc1c[nH]c2ccccc12)C(=O)N[C@H](C(=O)N[C@@H](CC(N)=O)C(=O)N[C@@H](CCCCN)C(N)=O)[C@@H](C)CC)[C@@H](C)CC)C(C)C` [SEQ ID NO: 177] (Ac-IHVNIPADLWDWINK-NH2), the IC50 was under 10 µM.

Take `CC[C@H](C)[C@H](NC(C)=O)C(=O)N[C@@H](Cc1c[nH]cn1)C(=O)N[C@H](C(=O)N[C@@H](CCC(N)=O)C(=O)N[C@H](C(=O)N1CCC[C@H]1C(=O)N[C@@H](C)C(=O)N[C@@H](CC(=O)O)C(=O)N[C@@H](CC(C)C)C(=O)N[C@@H](Cc1c[nH]c2ccccc12)C(=O)N[C@@H](CC(=O)O)C(=O)N[C@@H](Cc1c[nH]c2ccccc12)C(=O)N[C@H](C(=O)N[C@@H](CC(N)=O)C(=O)N[C@@H](CCCCN)C(N)=O)[C@@H](C)CC)[C@@H](C)CC)C(C)C` [SEQ ID NO: 178] (Ac-IHVQIPADLWDWINK-NH2): the IC50 is under 10 µM.

Regarding `CC[C@H](C)[C@H](NC(C)=O)C(=O)N[C@@H](Cc1c[nH]cn1)C(=O)N[C@H](C(=O)N[C@H](C(=O)N[C@@H](C)C(=O)N1CCC[C@H]1C(=O)N[C@@H](C)C(=O)N[C@@H](CC(=O)O)C(=O)N[C@@H](CC(C)C)C(=O)N[C@@H](Cc1c[nH]c2ccccc12)C(=O)N[C@@H](CC(=O)O)C(=O)N[C@@H](Cc1c[nH]c2ccccc12)C(=O)N[C@H](C(=O)N[C@@H](CC(N)=O)C(=O)N[C@@H](CCCCN)C(N)=O)[C@@H](C)CC)[C@@H](C)O)C(C)C` [SEQ ID NO: 179] (Ac-IHVTAPADLWDWINK-NH2), the IC50 was under 10 µM.

For the compound `CC[C@H](C)[C@H](NC(C)=O)C(=O)N[C@@H](Cc1c[nH]cn1)C(=O)N[C@H](C(=O)N[C@H](C(=O)NCC(=O)N1CCC[C@H]1C(=O)N[C@@H](C)C(=O)N[C@@H](CC(=O)O)C(=O)N[C@@H](CC(C)C)C(=O)N[C@@H](Cc1c[nH]c2ccccc12)C(=O)N[C@@H](CC(=O)O)C(=O)N[C@@H](Cc1c[nH]c2ccccc12)C(=O)N[C@H](C(=O)N[C@@H](CC(N)=O)C(=O)N[C@@H](CCCCN)C(N)=O)[C@@H](C)CC)[C@@H](C)O)C(C)C` [SEQ ID NO: 180] (Ac-IHVTGPADLWDWINK-NH2), the IC50 was under 10 µM.

As for `CC[C@H](C)[C@H](NC(C)=O)C(=O)N[C@@H](Cc1c[nH]cn1)C(=O)N[C@H](C(=O)N[C@H](C(=O)N[C@@H](CC(C)C)C(=O)N1CCC[C@H]1C(=O)N[C@@H](C)C(=O)N[C@@H](CC(=O)O)C(=O)N[C@@H](CC(C)C)C(=O)N[C@@H](Cc1c[nH]c2ccccc12)C(=O)N[C@@H](CC(=O)O)C(=O)N[C@@H](Cc1c[nH]c2ccccc12)C(=O)N[C@H](C(=O)N[C@@H](CC(N)=O)C(=O)N[C@@H](CCCCN)C(N)=O)[C@@H](C)CC)[C@@H](C)O)C(C)C` [SEQ ID NO: 181] (Ac-IHVTLPADLWDWINK-NH2), the IC50 was under 10 µM.

As for `CC[C@H](C)[C@H](NC(C)=O)C(=O)N[C@@H](Cc1c[nH]cn1)C(=O)N[C@H](C(=O)N[C@H](C(=O)N1CCC[C@H]1C(=O)N1CCC[C@H]1C(=O)N[C@@H](C)C(=O)N[C@@H](CC(=O)O)C(=O)N[C@@H](CC(C)C)C(=O)N[C@@H](Cc1c[nH]c2ccccc12)C(=O)N[C@@H](CC(=O)O)C(=O)N[C@@H](Cc1c[nH]c2ccccc12)C(=O)N[C@H](C(=O)N[C@@H](CC(N)=O)C(=O)N[C@@H](CCCCN)C(N)=O)[C@@H](C)CC)[C@@H](C)O)C(C)C` [SEQ ID NO: 182] (Ac-IHVTPPADLWDWINK-NH2), the IC50 is under 10 µM.

Regarding `CC[C@H](C)[C@H](NC(C)=O)C(=O)N[C@@H](Cc1c[nH]cn1)C(=O)N[C@H](C(=O)N[C@H](C(=O)N[C@H](C(=O)N1CCC[C@H]1C(=O)N[C@@H](C)C(=O)N[C@@H](CC(=O)O)C(=O)N[C@@H](CC(C)C)C(=O)N[C@@H](Cc1c[nH]c2ccccc12)C(=O)N[C@@H](CC(=O)O)C(=O)N[C@@H](Cc1c[nH]c2ccccc12)C(=O)N[C@H](C(=O)N[C@@H](CC(N)=O)C(=O)N[C@@H](CCCCN)C(N)=O)[C@@H](C)CC)C(C)C)[C@@H](C)O)C(C)C` [SEQ ID NO: 183] (Ac-IHVTVPADLWDWINK-NH2), the IC50 was under 10 µM.

Consider `CC[C@H](C)[C@H](NC(C)=O)C(=O)N[C@@H](Cc1c[nH]cn1)C(=O)N[C@H](C(=O)N[C@H](C(=O)N[C@@H](Cc1ccccc1)C(=O)N1CCC[C@H]1C(=O)N[C@@H](C)C(=O)N[C@@H](CC(=O)O)C(=O)N[C@@H](CC(C)C)C(=O)N[C@@H](Cc1c[nH]c2ccccc12)C(=O)N[C@@H](CC(=O)O)C(=O)N[C@@H](Cc1c[nH]c2ccccc12)C(=O)N[C@H](C(=O)N[C@@H](CC(N)=O)C(=O)N[C@@H](CCCCN)C(N)=O)[C@@H](C)CC)[C@@H](C)O)C(C)C` [SEQ ID NO: 184] (Ac-IHVTFPADLWDWINK-NH2), for which the IC50 was under 10 µM.

For `CC[C@H](C)[C@H](NC(C)=O)C(=O)N[C@@H](Cc1c[nH]cn1)C(=O)N[C@H](C(=O)N[C@H](C(=O)N[C@@H](Cc1ccc(O)cc1)C(=O)N1CCC[C@H]1C(=O)N[C@@H](C)C(=O)N[C@@H](CC(=O)O)C(=O)N[C@@H](CC(C)C)C(=O)N[C@@H](Cc1c[nH]c2ccccc12)C(=O)N[C@@H](CC(=O)O)C(=O)N[C@@H](Cc1c[nH]c2ccccc12)C(=O)N[C@H](C(=O)N[C@@H](CC(N)=O)C(=O)N[C@@H](CCCCN)C(N)=O)[C@@H](C)CC)[C@@H](C)O)C(C)C` [SEQ ID NO: 185] (Ac-IHVTYPADLWDWINK-NH2), the IC50 was under 10 µM.

On to `CC[C@H](C)[C@H](NC(C)=O)C(=O)N[C@@H](Cc1c[nH]cn1)C(=O)N[C@H](C(=O)N[C@H](C(=O)N[C@H](C(=O)N[C@@H](C)C(=O)N[C@@H](C)C(=O)N[C@@H](CC(=O)O)C(=O)N[C@@H](CC(C)C)C(=O)N[C@@H](Cc1c[nH]c2ccccc12)C(=O)N[C@@H](CC(=O)O)C(=O)N[C@@H](Cc1c[nH]c2ccccc12)C(=O)N[C@H](C(=O)N[C@@H](CC(N)=O)C(=O)N[C@@H](CCCCN)C(N)=O)[C@@H](C)CC)[C@@H](C)CC)[C@@H](C)O)C(C)C` [SEQ ID NO: 186] (Ac-IHVTIAADLWDWINK-NH2), for which the IC50 was under 10 µM.

For `CC[C@H](C)[C@H](NC(C)=O)C(=O)N[C@@H](Cc1c[nH]cn1)C(=O)N[C@H](C(=O)N[C@H](C(=O)N[C@H](C(=O)NCC(=O)N[C@@H](C)C(=O)N[C@@H](CC(=O)O)C(=O)N[C@@H](CC(C)C)C(=O)N[C@@H](Cc1c[nH]c2ccccc12)C(=O)N[C@@H](CC(=O)O)C(=O)N[C@@H](Cc1c[nH]c2ccccc12)C(=O)N[C@H](C(=O)N[C@@H](CC(N)=O)C(=O)N[C@@H](CCCCN)C(N)=O)[C@@H](C)CC)[C@@H](C)CC)[C@@H](C)O)C(C)C` [SEQ ID NO: 187] (Ac-IHVTIGADLWDWINK-NH2), the IC50 is under 10 µM.

Regarding `CC[C@H](C)[C@H](NC(C)=O)C(=O)N[C@@H](Cc1c[nH]cn1)C(=O)N[C@H](C(=O)N[C@H](C(=O)N[C@H](C(=O)N[C@@H](CC(C)C)C(=O)N[C@@H](C)C(=O)N[C@@H](CC(=O)O)C(=O)N[C@@H](CC(C)C)C(=O)N[C@@H](Cc1c[nH]c2ccccc12)C(=O)N[C@@H](CC(=O)O)C(=O)N[C@@H](Cc1c[nH]c2ccccc12)C(=O)N[C@H](C(=O)N[C@@H](CC(N)=O)C(=O)N[C@@H](CCCCN)C(N)=O)[C@@H](C)CC)[C@@H](C)CC)[C@@H](C)O)C(C)C` [SEQ ID NO: 188] (Ac-IHVTILADLWDWINK-NH2), the IC50 was under 10 µM.

Turning to `CC[C@H](C)[C@H](NC(C)=O)C(=O)N[C@@H](Cc1c[nH]cn1)C(=O)N[C@H](C(=O)N[C@H](C(=O)N[C@H](C(=O)N[C@H](C(=O)N[C@@H](C)C(=O)N[C@@H](CC(=O)O)C(=O)N[C@@H](CC(C)C)C(=O)N[C@@H](Cc1c[nH]c2ccccc12)C(=O)N[C@@H](CC(=O)O)C(=O)N[C@@H](Cc1c[nH]c2ccccc12)C(=O)N[C@H](C(=O)N[C@@H](CC(N)=O)C(=O)N[C@@H](CCCCN)C(N)=O)[C@@H](C)CC)C(C)C)[C@@H](C)CC)[C@@H](C)O)C(C)C` [SEQ ID NO: 189] (Ac-IHVTIVADLWDWINK-NH2), the IC50 was under 10 µM.

As to `CC[C@H](C)[C@H](NC(C)=O)C(=O)N[C@@H](Cc1c[nH]cn1)C(=O)N[C@H](C(=O)N[C@H](C(=O)N[C@H](C(=O)N[C@H](C(=O)N[C@@H](C)C(=O)N[C@@H](CC(=O)O)C(=O)N[C@@H](CC(C)C)C(=O)N[C@@H](Cc1c[nH]c2ccccc12)C(=O)N[C@@H](CC(=O)O)C(=O)N[C@@H](Cc1c[nH]c2ccccc12)C(=O)N[C@H](C(=O)N[C@@H](CC(N)=O)C(=O)N[C@@H](CCCCN)C(N)=O)[C@@H](C)CC)[C@@H](C)CC)[C@@H](C)CC)[C@@H](C)O)C(C)C` [SEQ ID NO: 190] (Ac-IHVTIIADLWDWINK-NH2), the IC50 is under 10 µM.

Consider `CC[C@H](C)[C@H](NC(C)=O)C(=O)N[C@@H](Cc1c[nH]cn1)C(=O)N[C@H](C(=O)N[C@H](C(=O)N[C@H](C(=O)N[C@@H](CC(N)=O)C(=O)N[C@@H](C)C(=O)N[C@@H](CC(=O)O)C(=O)N[C@@H](CC(C)C)C(=O)N[C@@H](Cc1c[nH]c2ccccc12)C(=O)N[C@@H](CC(=O)O)C(=O)N[C@@H](Cc1c[nH]c2ccccc12)C(=O)N[C@H](C(=O)N[C@@H](CC(N)=O)C(=O)N[C@@H](CCCCN)C(N)=O)[C@@H](C)CC)[C@@H](C)CC)[C@@H](C)O)C(C)C` [SEQ ID NO: 191] (Ac-IHVTINADLWDWINK-NH2), for which the IC50 is under 10 µM.

With `CC[C@H](C)[C@H](NC(C)=O)C(=O)N[C@@H](Cc1c[nH]cn1)C(=O)N[C@H](C(=O)N[C@H](C(=O)N[C@H](C(=O)N1CCC[C@H]1C(=O)NCC(=O)N[C@@H](CC(=O)O)C(=O)N[C@@H](CC(C)C)C(=O)N[C@@H](Cc1c[nH]c2ccccc12)C(=O)N[C@@H](CC(=O)O)C(=O)N[C@@H](Cc1c[nH]c2ccccc12)C(=O)N[C@H](C(=O)N[C@@H](CC(N)=O)C(=O)N[C@@H](CCCCN)C(N)=O)[C@@H](C)CC)[C@@H](C)CC)[C@@H](C)O)C(C)C` [SEQ ID NO: 192] (Ac-IHVTIPGDLWDWINK-NH2), the IC50 was under 10 µM.
